Results reported in patent US7081485B2, “Non-volatile dental compositions containing multifunctional acrylate compounds and lacking an oxygen-inhibited layer” (Bisco, Inc., priority 2002, dated 2006).

Experiment: Initiator absorptivity, 400–500 nm in acetonitrile
Format: physicochemical
Conditions: normalized by mass
Method: The absorptivity is the absorbance in the range of 400–500 nm in acetonitrile normalized by mass. The higher the value, the higher the absorption in the visible light range. The first three initiators undergo unimolecular bond cleavage upon irradiation. The last three initiators require a co-initiator, such as an amine, to undergo a bimolecular reaction. The initiators (and EDMAB amine if required) were added to the resin. Samples were coated on a white mixing pad, evaporated for greater than 60 seconds, and irradiated at 500 mW/cm^2 using a Bisco VIP light curing system. Samples were irradiated for 5 seconds, 10 seconds, 30 seconds, and 10 seconds in the absence of air. The “no air” cure was performed between two Mylar slips, each 0.25 mm thick. The actual concentration of initiator in the resin was double that shown in the table due to the evaporation of the acetone.

| SMILES | Absorbance × 10^−3 |
| --- | --- |
| CC12CCC(C(=O)C1=O)C2(C)C (stereo not drawn) [CQ, camphorquinone] | 11 × 10^−3 |
| Cc1cc(C)c(C(=O)P(=O)(C(=O)c2c(C)cc(C)cc2C)c2ccccc2)c(C)c1 [Composition 819, bis(2,4,6-trimethylbenzoyl)-phenylphosphineoxide] | 23 × 10^−3 |
| CCCCOc1ccc2cc3cc(I)c(=O)c(I)c-3oc2c1 [HNu, 5,7-diiodo-3-butoxy-6-fluorone] | 2960 × 10^−3 |
| O=C1C(=O)c2ccccc2-c2ccccc21 [PAQ, phenanthrenequinone] | 466 × 10^−3 |
| Cc1cc(C)c(C(=O)P(=O)(c2ccccc2)c2ccccc2)c(C)c1 [TPO, 2,4,6-trimethylbenzoyl-diphenylphosphinate] | 6 × 10^−3 |
| CCOP(=O)(C(=O)c1c(C)cc(C)cc1C)c1ccccc1 (stereo not drawn) [TPOL, ethyl-2,4,6-trimethylbenzoyl-phenylphosphinate] | 4 × 10^−3 |
